The source of these data is patent US20100062987A1, “ANTICONVULSIVE PHARMACEUTICAL COMPOSITIONS” (INSERM (Institut National de la Sante et de la Recherche …, priority 2006, published 2010).

In one series the test system is patients. Particulars: patients under therapeutical treatment; cited from earlier work.
Another series deals with rats. As to conditions: cited from earlier work.
The test system of series [1] is BALB/c mice. In words: Light dependence of the vigabatrin-elicited retinal toxicity (darkness vs 12h light/dark cycle). It is filed as in vivo. On the procedure: (§1) BALB/c mice (16 treated, 10 controls) were purchased from Janvier (Le Genest-St-lsle, France) at six weeks. VGB dissolved in 0.9%
(§2) NaCl at 100 mg/m1 was intraperitoneally injected daily for 30 days at a final concentration of 250 mg/kg as described for animal treatment of epilepsy (Andre V, Ferrandon A, Marescaux C, Nehlig A. Vigabatrin protects against hippocampal damage but is not antiepileptogenic in the lithium-pilocarpine model of temporal lobe epilepsy. Epilepsy Res. 2001;47:99-117). This dose was slightly higher than that prescribed to adult patient ([…]), children (100 mg/kg), or infants ([…]) (Bialer M, Johannessen S I, Kupferberg H J et al. Progress report on new antiepileptic drugs: a summary of the Fifth Eilat Conference (EILAT V). Epilepsy Res. 2001;43:11-58).
(§3) Eye cups were fixed overnight at 4° C. in 4% (wt/vol) paraformaldehyde in phosphate buffered saline (PBS) 0.01 M, pH 7.4. After cryoprotection in PBS containing successively 10%, 20% and 30% sucrose at 4° C., the tissue was embedded in OCT (Labonord, Villeneuve d'Ascq, France). Vertical sections (8-10 μm thickness) were permeabilized for 5 minutes in PBS containing 0.1% Triton X-100 (Sigma, St. Louis, Mo.), rinsed, and incubated in PBS containing 1% bovine serum albumin (Eurobio, Les-Ulis, France), 0.1% Tween 20 (Sigma), and 0.1% sodium azide (Merck, Fontenay-Sous-Bois, France) for 2 hours at room temperature. The primary antibody added to the solution was incubated for 2 hours at room temperature. The polycolonal antibodies were directed against the protein kinase C alpha (PKCα) (1:2000, Sigma), VGluT1 (1:2000, Chemicon), Goα (K-20; 1:100, Santa Cruz), calbindin D-28K (1:500, Chemicon), mouse cone arrestin/ Luminaire junior (LUMIj) (1:20,000, ^27). The monoclonal antibodies were directed against Goα (1:2000, Chemicon), bassoon (1:100, StressGen) and calbindin D-28K (1:500, Sigma). After rinses, sections were incubated with the secondary antibody, goat anti-rabbit IgG or rabbit anti-mouse IgG conjugated to either Alexa TM594 or Alexa TM488 (1:500, Molecular Probes, Eugene, Oreg.) for 2 hours. The dye, diamidiphenyl-indole (DAPI) was added to the last incubated solutions. Sections were rinsed, mounted with Fluorsave reagent (Calbiochem, San Diege, Calif.) and viewed with a Leica microscope (LEICA DM 5000B) equipped with a Ropper scientific camera (Photometrics cool SNAP TM FX).
Albino rats only are sensitive to the VGB-elicited retinal toxicity (Butler W H, Ford G P, Newberne J W. A study of the effects of vigabatrin on the central nervous system and retina of Sprague Dawley and Lister-Hooded rats. Toxicol Pathol. 1987;15:143-148). […]

Series [2] relates to BALB/c mice. In words: Retinal histology / immunolabelling of VGB-treated mice. It is filed as in vivo. Particulars: VGB 250 mg/kg i.p. daily for 30 days. The method, then:
as §1, §2, §3

[3] abbreviates: animals maintained in a dark room throughout the treatment.

The structures appear in SMILES notation.

As to `C=CC(N)CCC(=O)O` (stereo not shown) [VGB, 4-amino-5-hexenoic acid], the “Undesirable effects on vision” value with patients was “irreversible constriction of the visual field”. Also, the Major retinal changes entry in the series with rats is “retinal architecture disorganization, a major glial reaction, cone damages and photoreceptor apoptosis”. In the series with BALB/c mice [1] (setting [3]), the “Bipolar cell dendritic growth in the ONL” value was “found not to grow dendrites in the ONL” and the “Photoreceptor terminal withdrawal in the ONL” value is on record as “did not retract their terminals in the ONL”. Further, the “Other retinal damages like ONL disorganization” value in the series with BALB/c mice [1] (animals maintained in darkness) is on record as “not observed”. In addition, the “Bipolar cell dendritic growth and photoreceptor terminal withdrawal” value in the series on BALB/c mice [1] (animals under the 12h light/dark cycle) was “showed the bipolar cell dendritic growth and the photoreceptor terminal withdrawal”. Besides, the “Areas with a highly disorganized outer nuclear layer (ONL), animals affected” value in the series with BALB/c mice [2] (albino mice) is recorded as 5 of 16. Besides, in the series on BALB/c mice [2] (mice), the “Cone photoreceptor terminals, cone arrestin and Goα immunolabelling” value is “cone terminals remained in the OPL”; the “Cone photoreceptors, cone arrestin immunolabelling” value was “cone outer segments had disappeared”; the “Contact of rod photoreceptor terminals with postsynaptic neurons, VGLUT1/Goα and bassoon/PKCα double immunolabelling” value is given as “a few synaptic ribbons were not contacted by a rod bipolar cell dendrite”; the “Horizontal cell dendrites, calbindin immunolabelling” value is reported as “horizontal cells extended their dendrites deep into the ONL”. Also, in the series on BALB/c mice [2] (mice), the “ON bipolar cell dendrites, Goα immunolabelling” value is reported as “extended their dendrites deep into the ONL”; the “Photoreceptor synaptic ribbon, bassoon immunolabelling” value was “punctuate labelling was observed to penetrate deep into the ONL”; the “Photoreceptor synaptic vesicles, VGLUT1 immunolabelling” value is reported as “observed deep into the ONL”; the “Rod and cone ON bipolar cell plasticity, PKCα and Goα double immunolabelling” value is “both rod and cone ON bipolar cells underwent plasticity”. For the same compound, the “GFAP staining of glial Muller cells” value with BALB/c mice [2] (mice, vs control albino mice) was “not increased”.
